Measured values reported in US20050176945A1, “Cloning and characterization of slc26a7 and slc26a9 anion exchangers” (priority 2002, published 2005).

Assays:
SLC26A7 [1] = target: T1, SLC26A7 (Mus musculus, UniProt Q8R2Z3, F233L/S639T); settings: 25 mM Cl- added to the medium
T1 sequence (Q8R2Z3 1-656 F233L/S639T): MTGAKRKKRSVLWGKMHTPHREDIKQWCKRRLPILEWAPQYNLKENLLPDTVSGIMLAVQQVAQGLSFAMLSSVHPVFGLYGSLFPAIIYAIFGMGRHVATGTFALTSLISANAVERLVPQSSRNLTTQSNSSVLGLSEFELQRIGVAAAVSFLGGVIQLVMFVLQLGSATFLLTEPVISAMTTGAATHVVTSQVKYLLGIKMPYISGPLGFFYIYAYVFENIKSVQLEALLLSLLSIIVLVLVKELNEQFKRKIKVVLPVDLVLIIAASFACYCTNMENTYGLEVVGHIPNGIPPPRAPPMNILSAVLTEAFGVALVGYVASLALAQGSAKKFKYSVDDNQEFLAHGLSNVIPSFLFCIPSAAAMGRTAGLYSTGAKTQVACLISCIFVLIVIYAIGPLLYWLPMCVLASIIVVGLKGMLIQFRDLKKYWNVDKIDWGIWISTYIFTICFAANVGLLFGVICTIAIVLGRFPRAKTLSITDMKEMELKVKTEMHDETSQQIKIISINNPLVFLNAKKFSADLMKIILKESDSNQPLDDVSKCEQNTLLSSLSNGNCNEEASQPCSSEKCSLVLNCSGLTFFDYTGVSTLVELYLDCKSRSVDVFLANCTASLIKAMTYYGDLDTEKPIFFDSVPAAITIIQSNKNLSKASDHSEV
Method: (§1) Oocytes expressing SLC26A2, SLC26A7, or SLC26A9, or control oocytes (H2O) were incubated in medium containing ^35SO4^2− for one hour. (−), Cl^−-free medium; (+), 25 mM Cl^− added to the medium; hr, hour.
(§2) Full-length mouse SLC26A7 and SLC26A9 cDNAs were cloned into the Xenopus expression vector pGEMHE (Liman et al., 1992). SLC26A6 and SLC26A2 constructs were also prepared for use as controls in transport assays (Example 7). Expression constructs were linearized, and cRNA was transcribed in vitro using T7 RNA polymerase and a […] MMACHINE® transcription kit (Ambion, Inc. of Austin, Tex., United States of America). Defolliculated oocytes were injected with 25 nl to 50 nl of water or with a solution containing cRNA at a concentration of 0.5 μg/μl (12.5 ng to 25 ng per oocyte) using a Nanoliter-2000 injector (WPI Instruments of Sarasota, Fla., United States of America). Oocytes were incubated at 17° C. in 50% Leibovitz's L-15 media supplemented with penicillin/streptomycin (1000 units/ml) and glutamine for 2-3 days for uptake assays.
(§3) For sulphate uptake assays, oocytes were pre-incubated for 20 minutes in chloride-free uptake medium (100 mM NMDG gluconate, 2 mM potassium gluconate, 1 mM calcium gluconate, 1 mM magnesium gluconate, 10 mM HEPES-Tris, pH 6.0 or pH 7.5 as indicated), followed by a 60-minute period for uptake in the same medium supplemented with 1 mM K2^35SO4 (40 μCi/ml). The cells were then washed three times in uptake buffer with 5 mM cold K2SO4 to remove tracer activity in the extracellular fluid. The oocytes were dissolved individually in 10% SDS, and tracer activity was determined by scintillation counting. Uptake of chloride, formate, and oxalate was assayed using the same chloride-free uptake solutions, substituting 8.3 mM ^36Cl, 500 μM [^14C]oxalate, or 50 μM [^14C]formate for labeled sulphate. Each uptake experiment included 12-18 oocytes in each experimental group, and results were reported as means±SEM. […]

SLC26A9 [2] = target: T2, SLC26A9 (Mus musculus, UniProt Q8BU91, G332D/L540F); settings: 25 mM Cl- added to the medium
T2 sequence (Q8BU91 1-790 G332D/L540F): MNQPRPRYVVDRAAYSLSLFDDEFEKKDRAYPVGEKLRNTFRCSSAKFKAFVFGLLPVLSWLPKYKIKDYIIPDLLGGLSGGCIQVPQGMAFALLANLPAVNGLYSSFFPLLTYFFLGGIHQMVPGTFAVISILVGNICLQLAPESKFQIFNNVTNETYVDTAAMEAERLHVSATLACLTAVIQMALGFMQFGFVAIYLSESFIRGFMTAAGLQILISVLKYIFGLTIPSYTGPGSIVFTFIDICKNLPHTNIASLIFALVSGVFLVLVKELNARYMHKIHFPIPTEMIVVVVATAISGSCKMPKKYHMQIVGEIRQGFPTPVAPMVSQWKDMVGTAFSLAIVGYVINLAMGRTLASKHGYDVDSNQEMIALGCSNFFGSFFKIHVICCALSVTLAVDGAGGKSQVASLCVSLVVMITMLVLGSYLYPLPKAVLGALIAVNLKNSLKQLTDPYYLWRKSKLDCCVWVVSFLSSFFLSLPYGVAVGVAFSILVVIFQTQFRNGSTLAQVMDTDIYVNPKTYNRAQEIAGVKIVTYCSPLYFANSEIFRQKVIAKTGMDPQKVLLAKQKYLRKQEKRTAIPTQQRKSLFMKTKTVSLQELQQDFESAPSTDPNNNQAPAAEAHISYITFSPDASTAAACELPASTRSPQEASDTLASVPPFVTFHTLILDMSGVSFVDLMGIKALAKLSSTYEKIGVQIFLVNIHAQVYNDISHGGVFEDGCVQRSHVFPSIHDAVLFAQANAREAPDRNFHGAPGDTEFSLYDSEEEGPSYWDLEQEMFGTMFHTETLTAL
Method: as §1, §2, §3

SLC26A2 = settings: 25 mM Cl- added to the medium
Method: as §1, §2, §3

SLC26A7 [3] = target: T1, SLC26A7; experiment: 36Cl- uptake in SLC26A7-injected Xenopus oocytes; assay type: cell-based; set-up: Full-length mouse SLC26A7 and SLC26A9 cDNAs were cloned into the Xenopus expression vector pGEMHE; expressed in transfected cells; host or cells: Xenopus laevis oocytes injected with cRNA transcribed in vitro from pGEMHE; settings: 1 mM DIDS, pH 6.0, isotonic and hypotonic conditions
Method: FIG. 3A is a bar graph that depicts ^36Cl^− uptake (pmol/oocyte/h) as a function of extracellular osmolality and pH in SLC26A7-injected oocytes (A7) and water injected control oocytes (H2O). Oocytes were incubated during the pre-uptake period and uptake period at varying osmolaltiy at either pH 7.4 (open bars), pH 6.0 (black bars), or at pH 6.0 in the presence of 1 mM DIDS (grey bars). ISO, isotonic osmolality, 210 mOsm/kg; HYPO, hypotonic osmolality, 120 mOsm/kg; HYPER, hypertonic osmolality, 300 mOsm/kg; h, hour.

SLC26A9 [4] = target: T2, SLC26A9; experiment: 36Cl- uptake (Cl-Cl exchange) in SLC26A9-injected Xenopus oocytes; assay type: cell-based; set-up: Full-length mouse SLC26A7 and SLC26A9 cDNAs were cloned into the Xenopus expression vector pGEMHE; expressed in transfected cells; host or cells: Xenopus laevis oocytes injected with cRNA transcribed in vitro from pGEMHE; settings: 1 mM DIDS, pH 6.0
Method: FIG. 3B is a bar graph that depicts DIDS inhibition of ^36Cl^− uptake (pmol/oocyte/h) in SLC26A9injected oocytes (Slc26a9) and water-injected control oocytes (H2O). Oocytes were incubated during the pre-uptake period and uptake period at either pH 7.4 (open bars), pH 6.0 (black bars), or at pH 6.0 in the presence of 1 mM DIDS (grey bars). H, hour.
FIG. 3C is a bar graph that depicts a lack of cis-inhibition of Cl^−-Cl^− exchange in oocytes expressing SLC26A9 or in control oocytes (H2O). Oocytes were incubated in medium containing ^36Cl^− for one hour in the absence (control) or presence of 25 mM of the indicated anions.

Row | DIDS sensitivity of SLC26A7 36Cl- uptake activity (SLC26A7 [3]) | DIDS sensitivity of Cl-Cl exchange mediated by SLC26A9 (SLC26A9 [4]) | Compound | effect of extracellular Cl- on 35SO4 2- uptake in SLC26A7-injected oocytes (SLC26A7 [1]) | effect of extracellular Cl- on 35SO4 2- uptake in SLC26A9-injected oocytes (SLC26A9 [2]) | effect of extracellular Cl- on 35SO4 2- uptake by SLC26A2 (SLC26A2)
1 | – | – | Cl [Cl^−, chloride] | without activating | without activating | significantly inhibited
2 | modestly DIDS-sensitive | moderately sensitive | O=S(=O)(O)c1cc(N=C=S)ccc1C=Cc1ccc(N=C=S)cc1S(=O)(=O)O [DIDS, 4,4′-diisothiocyanatostilbene-2,2′-disulfonic acid] | – | – | –
